In patent publication US20240116921A1, “LACTAM (HETERO)[…] DERIVATIVES AS INHIBITORS OF ERBB2” (EnLiven Therapeutics, Inc., priority 2020, published 2024):
Where a name gives a salt, the structure may show the parent alone.

What was measured:
[1] = target: Ba/F3 ERBB2 A775_G776insYVMA (Homo sapiens, UniProt P04626, DUP772-775, cells depend on it); test: Cell viability assay, Ba/F3 ERBB2 A775_G776insYVMA; format: cell-based, mouse; settings: Ba/F3 ERBB2 YVMA cells, cell viability, 72 hours, CellTiter Glo; Table B5; read-out: Ba/F3 ERBB2 YVMA, IC50
Sequence of Ba/F3 ERBB2 A775_G776insYVMA (P04626 with tags, fused parts or gaps DUP772-775): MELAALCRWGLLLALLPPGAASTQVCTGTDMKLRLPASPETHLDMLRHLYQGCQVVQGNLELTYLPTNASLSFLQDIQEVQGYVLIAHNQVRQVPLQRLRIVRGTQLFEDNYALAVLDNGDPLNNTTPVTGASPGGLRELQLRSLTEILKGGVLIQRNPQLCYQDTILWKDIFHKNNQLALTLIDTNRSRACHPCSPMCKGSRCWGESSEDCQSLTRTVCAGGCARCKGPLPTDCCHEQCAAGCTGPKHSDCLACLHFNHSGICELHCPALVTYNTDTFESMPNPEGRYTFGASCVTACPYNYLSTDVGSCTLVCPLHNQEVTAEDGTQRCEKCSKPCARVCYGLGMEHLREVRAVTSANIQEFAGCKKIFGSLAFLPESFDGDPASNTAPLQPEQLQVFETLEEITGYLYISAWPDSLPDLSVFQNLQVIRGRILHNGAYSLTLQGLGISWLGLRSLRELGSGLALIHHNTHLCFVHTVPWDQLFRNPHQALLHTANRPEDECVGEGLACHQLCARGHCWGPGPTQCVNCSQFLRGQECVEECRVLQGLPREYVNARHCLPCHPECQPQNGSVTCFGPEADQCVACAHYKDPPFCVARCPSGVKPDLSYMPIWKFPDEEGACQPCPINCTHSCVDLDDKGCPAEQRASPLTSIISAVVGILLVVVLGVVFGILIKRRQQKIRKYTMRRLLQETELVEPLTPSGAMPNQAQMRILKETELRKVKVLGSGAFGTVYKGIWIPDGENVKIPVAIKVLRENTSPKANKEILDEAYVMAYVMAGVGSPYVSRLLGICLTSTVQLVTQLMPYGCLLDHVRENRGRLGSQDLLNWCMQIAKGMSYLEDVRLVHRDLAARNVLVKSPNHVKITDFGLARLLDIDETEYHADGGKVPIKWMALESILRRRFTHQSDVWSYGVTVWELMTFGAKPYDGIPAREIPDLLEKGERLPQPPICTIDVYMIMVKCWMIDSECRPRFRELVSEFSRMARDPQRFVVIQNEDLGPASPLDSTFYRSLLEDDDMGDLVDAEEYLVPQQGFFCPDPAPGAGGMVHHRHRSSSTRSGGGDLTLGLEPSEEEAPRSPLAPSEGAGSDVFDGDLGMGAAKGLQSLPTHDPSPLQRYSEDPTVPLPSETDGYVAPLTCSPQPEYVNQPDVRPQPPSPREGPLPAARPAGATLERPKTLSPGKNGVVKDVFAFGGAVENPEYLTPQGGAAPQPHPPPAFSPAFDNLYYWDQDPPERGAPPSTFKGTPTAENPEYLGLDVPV
Experimental: Cells were treated with compounds, and cell viability was measured as a metric of kinase inhibition.
The Ba/F3 cell line is IL-3-dependent mouse cell line derived from the C3H mouse strain. Ba/F3 cell lines were engineered to express human ERBB2 or EGFR kinases, rendering the cells IL-3 independent. The lines were generated via retroviral transduction utilizing a Moloney murine leukemia virus (MMLV) promoter, and constructs are stably integrated into the cell genome. The sequences of the ERBB2 and EGFR genes used were NCBI Reference Sequences NM_004448.3 and NM_005228.3, respectively.
Similarly, Ba/F3 cell lines engineered to express EGFR, ERBB2, or ERBB2 mutants were grown, harvested, counted and seeded at 3000 cells per well in 96-well plates. A subset of wells contained media only (low control, “LC”).
Table B1 provides the growth media and number of cells seeded per well for the each cell line.
Plates were placed in a 37° C., 5% CO2 incubator for 72 hours. Plates were then removed from the incubator and equilibrated for 15 minutes at room temperature. 40 μl of CellTiter Glo reagent (Promega) was added to measure the relative level of metabolically active cells by quantifying intracellular ATP concentrations. Plates were incubated for 30 minutes at room temperature, and luminescence was measured. […] Graphical curves were fitted using a nonlinear regression model with a sigmoidal dose response.

[2] = target: T1, phosphorylated ERBB2 (pERBB2) (Homo sapiens, UniProt P04626); test: Detection of phosphorylated ERBB2 (pERBB2) by ELISA in BT-474 cells; format: cell-based; settings: four hours incubation
T1 construct: endogenous in cells; host or cells: BT-474
T1 sequence (P04626 23-1255): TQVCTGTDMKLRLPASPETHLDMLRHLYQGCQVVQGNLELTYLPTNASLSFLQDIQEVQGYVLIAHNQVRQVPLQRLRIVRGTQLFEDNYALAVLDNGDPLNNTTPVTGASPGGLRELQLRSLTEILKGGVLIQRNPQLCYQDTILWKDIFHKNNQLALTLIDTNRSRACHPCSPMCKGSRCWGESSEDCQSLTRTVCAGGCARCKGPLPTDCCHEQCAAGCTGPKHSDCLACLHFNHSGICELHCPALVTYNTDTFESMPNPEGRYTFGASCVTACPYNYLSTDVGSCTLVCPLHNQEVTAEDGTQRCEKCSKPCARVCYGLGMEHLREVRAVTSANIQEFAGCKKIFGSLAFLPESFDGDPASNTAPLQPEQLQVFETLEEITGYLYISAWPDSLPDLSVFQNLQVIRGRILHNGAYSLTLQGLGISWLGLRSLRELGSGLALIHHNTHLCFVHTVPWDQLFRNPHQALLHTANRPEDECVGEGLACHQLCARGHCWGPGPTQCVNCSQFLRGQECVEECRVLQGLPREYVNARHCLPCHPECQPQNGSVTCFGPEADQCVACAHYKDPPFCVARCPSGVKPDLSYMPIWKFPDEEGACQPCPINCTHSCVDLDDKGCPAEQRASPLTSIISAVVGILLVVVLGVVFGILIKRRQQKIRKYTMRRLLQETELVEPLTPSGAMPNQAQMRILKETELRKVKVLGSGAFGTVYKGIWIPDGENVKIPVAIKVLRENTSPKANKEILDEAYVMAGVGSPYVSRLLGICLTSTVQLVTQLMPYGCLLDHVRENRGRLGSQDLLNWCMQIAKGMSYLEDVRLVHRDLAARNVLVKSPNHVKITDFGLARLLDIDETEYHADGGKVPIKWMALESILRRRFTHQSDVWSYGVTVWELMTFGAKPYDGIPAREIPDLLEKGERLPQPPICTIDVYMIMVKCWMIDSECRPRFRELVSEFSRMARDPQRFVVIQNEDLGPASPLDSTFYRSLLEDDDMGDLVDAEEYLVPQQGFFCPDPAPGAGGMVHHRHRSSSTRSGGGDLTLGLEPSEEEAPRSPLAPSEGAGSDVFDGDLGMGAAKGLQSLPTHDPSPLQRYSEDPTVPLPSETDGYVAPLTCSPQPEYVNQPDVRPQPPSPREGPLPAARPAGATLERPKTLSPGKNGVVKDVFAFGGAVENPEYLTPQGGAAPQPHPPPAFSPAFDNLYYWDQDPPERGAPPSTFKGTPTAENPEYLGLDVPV
Experimental: BT-474 cells were seeded into a 96-well at 2.0*10^4 cells/100 μl/well.
Compounds were dissolved and serially diluted in DMSO. The compounds were then were added, mixed, and incubated for four hours at 37° C., 5% CO2. Compounds were added using four-fold dilutions at final concentrations ranging from 10 μM to 0.01 nM.
Following the four hour incubation with compounds, cell lysates were prepared.
Plates were centrifuged for 5 min at 3000 RPM, and supernatant was removed from each well. Cells were washed 3 times by resuspension in 150 μl PBS, followed by centrifugation and removal of the supernatant, as above. […] Cells were incubated with lysis buffer for 1 hour at 4° C., and then stored at −80° C.
Enzyme-linked immunosorbent assays (ELISA) were performed to measure phosphorylated ERBB2 levels. […] The next day, plates were washed with PBS+0.05% Tween20 (PBST). 150 μl of 5% BSA blocking solution was added for 1 hour at room temperature, with shaking. Plates were washed with PBST. Cell lysates were thawed and 100 μl of lysate was added to the ELISA plate. The plates were incubated for 2 hours at room temperature, with shaking. […] Plates were incubated for 1 hour at room temperature, with shaking. Plates were then washed with PBST, and 100 μl TMB substrate solution (R&D Systems, cat #DY999) was added. Plate were incubated in the dark for 20 minutes at room temperature. 50 μl of Stop solution (R&D Systems, cat #DY994) (50 μl) was added to each well and mixed.
Optical density at 450 nm was read on an EnSpire plate reader (Perkin Elmer). The remaining kinase activity by calculated using the following formula: % Relative activity=100×(A450sample−A450LC)/(A450HC−A450LC). The low and high control values (“LC” and “HC”) were generated from lysate from wells without cells or with cells treated with 0.1% DMSO, respectively.

[3] = target: T2, phosphorylated EGFR (pEGFR) (Homo sapiens, UniProt P00533); test: Detection of phosphorylated EGFR (pEGFR) in EGF-stimulated A431 cells; format: cell-based; settings: A431 cells (10% FBS), 4 hours incubation, EGF 30 ng/mL 10 minutes, AlphaLISA
T2 construct: performed to measure phosphorylated EGFR levels using A431 cells (10% FBS); endogenous in cells; host or cells: A431
T2 sequence (P00533 25-1210): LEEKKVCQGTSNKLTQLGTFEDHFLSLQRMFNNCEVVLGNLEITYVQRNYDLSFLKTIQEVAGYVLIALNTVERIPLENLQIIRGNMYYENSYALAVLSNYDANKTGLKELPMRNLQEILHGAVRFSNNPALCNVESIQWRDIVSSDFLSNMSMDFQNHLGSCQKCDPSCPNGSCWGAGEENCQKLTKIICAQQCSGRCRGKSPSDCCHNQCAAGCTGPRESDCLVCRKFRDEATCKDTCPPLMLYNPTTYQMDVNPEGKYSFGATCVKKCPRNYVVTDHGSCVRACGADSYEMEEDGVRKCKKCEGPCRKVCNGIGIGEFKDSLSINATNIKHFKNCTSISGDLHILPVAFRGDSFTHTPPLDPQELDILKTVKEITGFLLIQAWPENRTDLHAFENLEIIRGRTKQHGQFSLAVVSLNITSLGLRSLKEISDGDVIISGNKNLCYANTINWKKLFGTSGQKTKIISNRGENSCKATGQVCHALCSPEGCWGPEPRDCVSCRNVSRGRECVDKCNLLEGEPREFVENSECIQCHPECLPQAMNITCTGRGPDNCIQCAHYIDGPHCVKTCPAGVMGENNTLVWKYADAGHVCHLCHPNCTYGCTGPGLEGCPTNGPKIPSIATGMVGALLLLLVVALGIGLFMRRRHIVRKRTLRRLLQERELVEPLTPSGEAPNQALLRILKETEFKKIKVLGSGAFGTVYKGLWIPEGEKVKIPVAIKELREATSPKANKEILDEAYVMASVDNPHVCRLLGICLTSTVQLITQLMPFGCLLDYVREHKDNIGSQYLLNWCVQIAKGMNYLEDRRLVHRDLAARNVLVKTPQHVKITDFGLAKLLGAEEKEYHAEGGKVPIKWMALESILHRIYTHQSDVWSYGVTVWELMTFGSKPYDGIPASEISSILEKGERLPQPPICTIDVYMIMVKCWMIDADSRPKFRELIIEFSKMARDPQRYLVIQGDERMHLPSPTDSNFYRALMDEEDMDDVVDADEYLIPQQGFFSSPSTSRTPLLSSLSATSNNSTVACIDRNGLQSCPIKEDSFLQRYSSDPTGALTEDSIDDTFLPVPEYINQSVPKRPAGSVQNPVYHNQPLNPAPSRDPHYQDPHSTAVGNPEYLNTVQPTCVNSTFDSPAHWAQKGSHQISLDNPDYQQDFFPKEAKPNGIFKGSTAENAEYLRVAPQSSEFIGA
Experimental: Enzyme-linked immunosorbent assays (ELISA) were performed to measure phosphorylated EGFR levels using A431 cells (10% FBS). A431 (1.0*10^4 cells/40 μl/well) cells were seeded in 384 well. Compounds were dissolved in DMSO, serially diluted in DMSO and then were added, mixed, and incubated for 4 hours at 37° C., 5% CO2. Following the 4-hours incubation, cells were stimulated for 10 minutes with EGF (Invitrogen, cat #PHG0311) at a final concentration of 30 ng/mL in the incubator. The media was aspirated and cells were lysed in 10 μL lysis buffer with protease and phosphatase inhibitors (PerkinElmer, cat #ALSU-PEGFR-A50K). The plates were placed on a shaker for 5 minutes and then incubated for 30 min at 4° C. for complete lysis. The lysate was transferred to an Optiplate (Perkin Elmer, cat #6007290).
Acceptor mix (PerkinElmer, cat #ALSU-PEGFR-A50K) was prepared just before use and 5 μL was dispensed to all the wells, followed by a 1.5-2 h incubation at room temperature in dark. The donor mix (PerkinElmer, cat #ALSU-PEGFR-A50K) was prepared under low light conditions prior to use and […] of donor mix was added to all the wells under subdued lighting or green filters. The plates were placed on a shaker for 5 min, sealed, and incubated overnight at room temperature in dark. Plates were read on the Envision (PerkinElmer) using standard AlphaLISA settings.
The percentage of inhibition on EGFR phosphorylation was calculated following equation: % Inhibition=100×(LumHC−LumSample)/(LumHC−LumLC). The low and high controls (LC/HC) are generated from lysate from wells with cells treated with DMSO or […] Staurosporine (BioAustralis, cat #BIA-S1086), […]. IC50 values were calculated by fitting the Curve using XLfit (v5.3.1.3), equation 201: Y=Bottom+(Top−Bottom)/(1+10^((Log IC50−X)*HillSlope)).

| SMILES | IC50 [2] [nM] | IC50 [3] [nM] | GI50 [1] [nM] |
| --- | --- | --- | --- |
| CC1CN(c2cc3c(Nc4cc(F)c(Oc5ccc6c(c5)nnn6C)cc4F)ncnc3cn2)C(=O)/C1=C/CN(C)C (single isomer, unassigned) [Example S125, Enantiomer #1, (3E)-1-[4-({2,5-difluoro-4-[(1-methyl-1,2,3-benzotriazol-5-yl)oxy]phenyl}amino)pyrido[3,4-d]pyrimidin-6-yl]-3-[2-(dimethylamino)ethylidene]-4-methylpyrrolidin-2-one] | 710 | > 10000 | > 500 |
| CC1CN(c2cc3c(Nc4cc(F)c(Oc5ccc6c(c5)nnn6C)cc4F)ncnc3cn2)C(=O)/C1=C/CN(C)C (single isomer, unassigned) [Example S125, Enantiomer #2, (3E)-1-[4-({2,5-difluoro-4-[(1-methyl-1,2,3-benzotriazol-5-yl)oxy]phenyl}amino)pyrido[3,4-d]pyrimidin-6-yl]-3-[2-(dimethylamino)ethylidene]-4-methylpyrrolidin-2-one] | 76 | 2300 | 27 |
| Cc1cc(Nc2ncnc3ccc(N4CC(C)C(=CCN(C)C)C4=O)nc23)ccc1Oc1ccc2c(c1)nnn2C (single isomer, unassigned) [Example S126, Enantiomer #1, 3-[2-(dimethylamino)ethylidene]-4-methyl-1-[4-({3-methyl-4-[(1-methyl-1,2,3-benzotriazol-5-yl)oxy]phenyl}amino)pyrido[3,2-d]pyrimidin-6-yl]pyrrolidin-2-one] | 40.9 | 299 | 2.04 |
| Cc1cc(Nc2ncnc3ccc(N4CC(C)C(=CCN(C)C)C4=O)nc23)ccc1Oc1ccc2c(c1)nnn2C (single isomer, unassigned) [Example S126, Enantiomer #2, 3-[2-(dimethylamino)ethylidene]-4-methyl-1-[4-({3-methyl-4-[(1-methyl-1,2,3-benzotriazol-5-yl)oxy]phenyl}amino)pyrido[3,2-d]pyrimidin-6-yl]pyrrolidin-2-one] | 401 | > 10000 | 205 |
| CC1CN(c2ccc3ncnc(Nc4ccc(Oc5ccn6ncnc6c5)c(F)c4)c3n2)C(=O)/C1=C/CN(C)C (single isomer, unassigned) [Example S127, Enantiomer #1, (E)-1-(4-((4-([1,2,4]triazolo[1,5-a]pyridin-7-yloxy)-3-fluorophenyl)amino)pyrido[3,2-d]pyrimidin-6-yl)-3-(2-(dimethylamino)ethylidene)-4-methylpyrrolidin-2-one] | 14 | 575 | 2.88 |
| CC1CN(c2ccc3ncnc(Nc4ccc(Oc5ccn6ncnc6c5)c(F)c4)c3n2)C(=O)/C1=C/CN(C)C (single isomer, unassigned) [Example S127, Enantiomer #2, (E)-1-(4-((4-([1,2,4]triazolo[1,5-a]pyridin-7-yloxy)-3-fluorophenyl)amino)pyrido[3,2-d]pyrimidin-6-yl)-3-(2-(dimethylamino)ethylidene)-4-methylpyrrolidin-2-one] | 146 | > 10000 | 418 |
| Cc1cc(Nc2ncnc3ccc(N4CC(C)/C(=C\CN(C)C)C4=O)nc23)ccc1Oc1ccc2c(c1)ncn2C (single isomer, unassigned; enantiomer 1) [Example S58, Enantiomer # 1, (3E)-3-[2-(dimethylamino)ethylidene]-4-methyl-1-[4-({3-methyl-4-[(1-methyl-1,3-benzodiazol-5-yl)oxy]phenyl}amino)pyrido[3,2-d]pyrimidin-6-yl]pyrrolidin-2-one hydrochloride Enantiomer 1] | 29.7 | 264 | 1.46 |
| Cc1cc(Nc2ncnc3ccc(N4CC(C)/C(=C\CN(C)C)C4=O)nc23)ccc1Oc1ccc2c(c1)ncn2C (single isomer, unassigned; enantiomer 2) [Example S58, Enantiomer # 2, (3E)-3-[2-(dimethylamino)ethylidene]-4-methyl-1-[4-({3-methyl-4-[(1-methyl-1,3-benzodiazol-5-yl)oxy]phenyl}amino)pyrido[3,2-d]pyrimidin-6-yl]pyrrolidin-2-one hydrochloride Enantiomer 2] | 44.2 | > 10000 | 13.3 |

Second part, led by results:

| IC50 [2] [nM] | IC50 [3] [nM] | SMILES | GI50 [1] [nM] |
| --- | --- | --- | --- |
| 9.9 | 103 | C=C1C(=O)N(c2cc3c(Nc4ccc(Oc5ccn6ncnc6c5)c(C)c4)ncnc3cn2)C2CC12 (single isomer, unassigned; enantiomer 1) [Example S40, Enantiomer # 1, 2-{4-[(3-methyl-4-{[1,2,4]triazolo[1,5-a]pyridin-7-yloxy}phenyl)amino]pyrido[3,4-d]pyrimidin-6-yl}-4-methylidene-2-azabicyclo[3.1.0]hexan-3-one Enantiomer 1] | 3.47 |
| 35.5 | 6450 | C=C1C(=O)N(c2cc3c(Nc4ccc(Oc5ccn6ncnc6c5)c(C)c4)ncnc3cn2)C2CC12 (single isomer, unassigned; enantiomer 2) [Example S40, Enantiomer # 2, 2-{4-[(3-methyl-4-{[1,2,4]triazolo[1,5-a]pyridin-7-yloxy}phenyl)amino]pyrido[3,4-d]pyrimidin-6-yl}-4-methylidene-2-azabicyclo[3.1.0]hexan-3-one Enantiomer 2] | 68.1 |
| 1190 | > 10000 | C=C1CCN(c2cc3c(Nc4ccc(Oc5ccn6ncnc6c5)c(Cl)c4)ncnc3cc2OCCN(C)C)C1=O [Compound 25, 1-{4-[(3-chloro-4-{[1,2,4]triazolo[1,5-a]pyridin-7-yloxy}phenyl)amino]-7-[2-(dimethylamino)ethoxy]quinazolin-6-yl}-3-methylidenepyrrolidin-2-one] | > 500 |
| 11.7 | 1460 | Cc1cc(Nc2ncnc3ccc(N4CC/C(=C\CCN(C)C)C4=O)cc23)ccc1Oc1ccn2ncnc2c1 [Compound 26, (3E)-3-[3-(dimethylamino)propylidene]-1-{4-[(3-methyl-4-{[1,2,4]triazolo[1,5-a]pyridin-7-yloxy}phenyl)amino]quinazolin-6-yl}pyrrolidin-2-one] | 8.61 |
